The experiment concerns P. falciparum 3D7 growth, pLDH absorbance. In words: P. falciparum 3D7 growth inhibition, dose response, strain 3D7 (AID 2305).

Molecules are shown by their SMILES.

A word on the IC50: it is the point on the concentration scale where inhibition reaches its midpoint. The low end stands for greater potency, the high end for weaker potency. With `CCNc1cc(C(=O)N[C@@H](Cc2ccccc2)[C@H](O)CNC(C)(C)CCCC(C)C)c(F)c(N2CCCS2(=O)=O)c1`, the 50% inhibitory concentration (IC50) turned out to be 200 nM. With `COc1cccc(-c2cnc(-c3ccncc3)nc2C2CCN(Cc3ccc(NC(C)=O)cc3)CC2)c1` the figure was 1500 nM; with `COc1cccc(C2=CC(c3ccccc3)n3ncc(C(=O)Nc4ccc(Cl)cc4)c3N2)c1` (stereo not drawn), 1060 nM. Take `FC(F)(F)COc1c(CCNCCCCNCCc2ccc3ccccc3c2OCC(F)(F)F)ccc2ccccc12`: the concentration for half-maximal inhibition (IC50) was 350 nM.

Molecule `CCN(CC)CCCC(C)Nc1c(-c2ccc(OC)cc2)cnc2ccccc12` (stereo not drawn) registered an IC50 of 890 nM. The figure for `O=C(c1cccc(-c2ccc(-c3nc4ccc(F)cc4[nH]3)s2)c1)N1CCCCC1CN1CCC(O)C1` (stereo not drawn) is 720 nM. The figure for `COc1cccc(C(=O)NC(NC(=S)Nc2ccc(OC)cc2[N+](=O)[O-])C(Cl)(Cl)Cl)c1` (stereo not drawn) is 760 nM. Molecule `O=C(NCCCN1CCC(NC(=O)c2ccc(-c3cccnc3)cc2)CC1)c1ccc(Cl)c(Cl)c1` yielded an IC50 of 850 nM. The figure for `CC(=O)Nc1cccc(C(=O)Nc2nc3ccc(-c4cc(=O)[nH]c(Nc5ccccc5Cl)n4)cc3[nH]2)c1` is 690 nM; for `CC[C@H]1CN2CC[C@H]1C[C@H]2[C@@H](O)c1cc(OCCCN(C)C)nc2ccc(OC)cc12` it is 130 nM; for `CCCNC(=O)Nc1cc2cc(-c3cccc(CN4CCCCC4)c3)ccc2n2c(C)nnc12` it is 1110 nM. With `O=[N+]([O-])c1ccc(Oc2c(Cl)cc(S(=O)(=O)NC3CCC(CN4CCC(c5c[nH]c6ccccc56)CC4)CC3)cc2Cl)c(Cl)c1` (stereo not drawn) the figure was 760 nM.

`CCN(CC)CCNC(=O)/C(=C/C=C/c1cc2cc(Cl)c(Cl)cc2[nH]1)OC` returned a concentration for half-maximal inhibition (IC50) of 930 nM. `O=C(NCCCN1CCCCC1)c1cccc(Nc2nccc(Nc3ccc(Oc4ccccc4)cc3)n2)c1` registered an IC50 of 820 nM. On to `Cc1cccc2[nH]cc(C3CCN(CCC4CCN(C(=O)/C=C/c5ccc(Cl)c(Cl)c5)CC4)CC3)c12`, for which the IC50 is 1220 nM. With `O=C(Nc1ccc(Cl)c(Cl)c1)N1CCc2ccc(OCCCN3CCCCC3)cc2CC1` the figure was 1520 nM; with `Cn1c(N)c(C(=O)CSc2ncc(-c3ccc(F)cc3)n2Cc2ccccc2)c(=O)n(C)c1=O`, 570 nM. With `CCCCOP(=O)(COc1ccc(CCN(CC(O)COc2cccc3[nH]c4ccccc4c23)CC(O)COc2cccc3[nH]c4ccccc4c23)cc1)C1CCCCC1` (stereo not drawn) the figure was 940 nM; with `C#C[C@H]1O[C@@H](n2cnc3c(Nc4cc(Br)cc(C(F)(F)F)c4)ncnc32)[C@H](O)[C@@H]1O`, 1030 nM.

The molecule `c1cc(CN2CCN(c3ccncc3)CC2)cc(-c2cccc(-c3nc4ccccc4[nH]3)c2)c1` displayed a half-maximal inhibitory concentration (IC50) of 130 nM. The molecule `COc1ccc(Cn2c(Nc3cccc(C(F)(F)F)c3)nc3cc(C(=O)NCCCN(C)C)ccc32)cc1Cl` registered an IC50 of 910 nM. The figure for `COc1ccc2nccc(NCC3(O)CCC(NCc4ccc5c(n4)NC(=O)CS5)CC3)c2n1` (stereo not drawn) is 690 nM; for `COc1ccc(-c2cc(C(=O)N[C@@H](Cc3ccccc3)C(=O)NCCN3CCCCC3)ccc2O)cc1` it is 790 nM. The figure for `COc1ccccc1Cn1ccnc1SCC(=O)Nc1cccc(C(F)(F)F)c1` is 910 nM; for `O=C(NC1CCCCN(Cc2ccc3c(c2)OCCO3)C1)c1cc(-c2ccccc2F)cs1` (stereo not drawn) it is 1050 nM; for `O=C(c1cc(-c2cccs2)[nH]n1)N1CCN(S(=O)(=O)c2ccc(Cl)cc2)CC1` it is 290 nM. Regarding `O=C(Cc1ccccc1)NC(CCN1CCC(N(C2CC2)S(=O)(=O)c2cccc(C(F)(F)F)c2)CC1)c1ccc(Cl)c(Cl)c1` (stereo not drawn), the IC50 amounted to 1270 nM. With `C[C@H](Cc1ccc(C[C@@H](C)NCC(O)c2cc(Cl)c(N)c(Cl)c2)cc1)NCC(O)c1cc(Cl)c(N)c(Cl)c1` (stereo partly drawn) the figure was 890 nM; with `COc1ccc(NC(=O)Nc2nc(-c3ccc(Cl)c(C)c3)cs2)cc1N1CCN(C)CC1`, 270 nM; with `Cc1cc(N[C@@H](CC(C)C)C(=O)Nc2ccccc2)nc(Nc2ccccc2)n1`, 730 nM. With `Oc1cccc(-c2nc(-c3ccccc3)c(-c3ccc(Oc4ccc(-c5[nH]c(-c6cccc(O)c6)nc5-c5ccccc5)cc4)cc3)[nH]2)c1` the figure was 860 nM; with `CC1CCC(C[C@@H](C(=O)N[C@H](C(=O)Nc2nccs2)[C@@H](C)O)[C@H](CCC(F)(F)F)N(O)C=O)CC1` (stereo partly drawn), 540 nM; with `O=C(c1cc(C(=O)Nc2ccccc2)c(=O)n(-c2ccccc2)c1)c1cc(Cl)ccc1O`, 390 nM.

The molecule `COc1ccc(NC(=O)C2c3ccccc3C(=O)N(CC(C)C)C2c2cccs2)cc1OC` (stereo not drawn) displayed an IC50 of 200 nM. `O=C(NCC1CCN(CCN2CCC(c3cn(CCO)c4ccccc34)CC2)CC1)c1ccc(-c2ccc(C(F)(F)F)cc2)cc1` had a half-maximal inhibitory concentration (IC50) of 440 nM. The figure for `O=C(Cc1ccc(F)cc1)NC1CCN(c2ccnc3cc(Cl)ccc23)C1` (stereo not drawn) is 480 nM; for `Cc1cc(NC(=O)NCCN2CCC(NC(=O)c3cccc(Br)c3)C2)c2ccccc2n1` (stereo not drawn) it is 550 nM; for `CC(=O)N(Cc1nc(-c2cc(C(F)(F)F)cc(C(F)(F)F)c2)cs1)c1c(C)cccc1C` it is 110 nM. As to `Cc1nc2nc(N)nc(N)c2c(C)c1Cc1ccccc1Cl`, the IC50 was found to be 110 nM. The molecule `COc1ccc(-c2cnc3[nH]cc(-c4ccc(CCC(=O)O)cc4)c3c2)cn1` came in with an IC50 of 770 nM. The figure for `COC(=O)c1cccc(CNCc2ccc(-c3ccc(-c4nc5c(C)cccc5[nH]4)s3)cc2)c1` is 400 nM; for `CC[C@H]1CN2CC[C@H]1C[C@H]2[C@H](O)c1cc(-c2ccc(F)cc2)nc2ccc(OC)cc12` it is 50 nM; for `O=C(Nc1ccc2nc(-c3ccccc3)[nH]c2c1)c1cc(-c2ccc3c(c2)OCCO3)n[nH]1` it is 770 nM. Molecule `O=C(NCCc1cccc(Cl)c1Cl)c1ccc(N2CCN(c3ccncc3)CC2)nc1` gave an IC50 of 1060 nM. The molecule `Nc1nc2c(ncn2OC[C@H](CO)OCP(=O)(O)O)c(=O)[nH]1` registered an IC50 of 340 nM.

As for `COC(=O)c1ccc(CC(C)NCC(O)c2ccccc2Cl)cc1` (stereo not drawn), the IC50 worked out at 1010 nM. The figure for `COc1cc2nc(NCCc3ccccc3)nc(NCc3ccc(C#N)cc3)c2cc1OC` is 150 nM; for `CCc1ccc(NC(=O)c2ccc(CN3CCCN(CC4CCCCC4)CC3)cc2)cc1` it is 710 nM. The figure for `N#Cc1cccc(C(=O)N2CCOC(CCN3CCC(c4ccccc4)CC3)(c3ccc(Cl)c(Cl)c3)C2)c1` (stereo not drawn) is 1040 nM. With `c1cc(COc2ccc(C3=NCCN3)cc2)nc(COc2ccc(C3=NCCN3)cc2)c1` the figure was 150 nM; with `CC[C@H]1CN2CC[C@@H]1C[C@H]2[C@H](O)c1cc(N2CCC(c3ccccc3)CC2)nc2ccc(OC)cc12`, 350 nM; with `CS(=O)(=O)Nc1ccc2c(C3CCN(CC4CCN(C(=O)/C=C/c5ccc(Cl)c(Cl)c5)CC4)CC3)c[nH]c2c1`, 760 nM.

The molecule `O=C(/C=C/c1ccc(Cl)c(Cl)c1)NCCCCCN1CCCN(C(=O)Nc2cccc(F)c2)CC1` gave an IC50 of 760 nM.

For `O=c1[nH]c(NCCCNCc2cc3c(Cl)cc(Cl)cc3[nH]2)nc2ccccc12`, the IC50 was found to be 990 nM. As for `COc1cc(NCCCCNc2ccc(Cl)c(Cl)c2)nc2ccccc12`, the IC50 amounted to 530 nM. The figure for `Cc1cc(N[C@@H](Cc2ccccc2)C(=O)NCCOc2ccccc2)nc(NCCc2ccccc2)n1` is 1030 nM; for `COc1cc(NC(=O)/C=C/c2cccc3cc[nH]c23)ccc1OCCN(C(C)C)C(C)C` it is 270 nM. With `CCCCCCCCc1c(C)[nH]c(C)c(I)c1=O`, the 50% inhibitory concentration (IC50) came to 740 nM.

The values above are taken from PubChem BioAssay AID2305 (GlaxoSmithKline (GSK), 2010).
